For one compound, inhibition results are on record in patent publication US20080125454A1, “Methods and Compositions for Treatment of Scleritis and Related Disorders” (Wyeth, priority 2006, published 2008).

The test has as its target T1, P-selectin binding to P-selectin glycoprotein ligand-1 (PSGL-1) (Homo sapiens, UniProt P16109).
T1 construct: truncated form of human P-selectin comprised of the lectin and EGF domains (P-LE)
T1 sequence (P16109 42-198): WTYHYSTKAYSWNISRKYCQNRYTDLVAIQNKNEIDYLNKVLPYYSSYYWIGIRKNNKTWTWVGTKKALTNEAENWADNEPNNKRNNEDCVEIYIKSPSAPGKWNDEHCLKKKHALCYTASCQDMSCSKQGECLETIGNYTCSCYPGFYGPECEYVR
The experiment in a line: Biacore inhibition of P-selectin binding to PSGL-1 (P-LE binding to immobilized SGP-3). The note with it: 1 mM; read-out: percent inhibition of binding (positive control). As for the experimental part:
Compounds of the present teachings can be assayed for selectin inhibitory activity using any of the procedures known in the art. One convenient procedure is the determination of IC50 values for inhibition of P-selectin binding to P-selectin glycoprotein ligand-1 (PSGL-1) using a Biacore instrument.
The Biacore 3000 is an instrument that uses surface plasmon resonance to detect binding of a solution phase analyte to an immobilized ligand on a sensor chip surface. The analyte sample is injected under flow using a microfluidic system. Binding of analyte to ligand causes a change in the angle of refracted light at the surface of the sensor chip, measured by the Biacore instrument in resonance units (RUs).
SGP-3 is a purified sulfoglycopeptide form of human PSGL-1 that contains the P-selectin binding determinants (See Somers et al., 2000, Cell 103, 467-479). […]
The Biacore assay measures the signal in RU produced by binding of P-LE to SGP-3 in the presence and absence of inhibitors. Percent inhibition of binding is calculated by dividing the inhibited signal by the uninhibited signal subtracting this value from one then multiplying by one hundred. […] The data from this titration are plotted, RU values vs. concentration, and the IC50 is determined by extrapolation from the plot. […]

`CC1(C)[C@@H](O[C@H]2O[C@H](C(=O)O)[C@@H](O)[C@H](O)[C@H]2O[C@@H]2O[C@H](C(=O)O)[C@@H](O)[C@H](O)[C@H]2O)CC[C@]2(C)[C@H]3C(=O)C=C4[C@@H]5C[C@@](C)(C(=O)O)CC[C@]5(C)CC[C@@]4(C)[C@]3(C)CC[C@@H]12` [Glycyrrhizin]: the inhibition (as a rule, how much of the control response was suppressed) at 1000 µM worked out at 50%.
